{"source": "ChEMBL document CHEMBL6134813", "about": "“Arctigenin derivative TZOA restores mitochondrial homeostasis to combat rhabdovirus infections” (Eur J Med Chem, 2025)", "key": {"[1]": {"tested_on": "Infectious hematopoietic necrosis virus", "assay": "Antiviral activity against IHNV infected in EPC cells (unknown origin) assessed as reduction in viral load for adsorption at 25 uM measured after 1 hr of incubation at 4 degreeC by RT-qPCR analysis relative to control", "type": "functional", "design": "scale not given: the % may be the effect or the level left"}, "[2]": {"tested_on": "Infectious hematopoietic necrosis virus", "assay": "Antiviral activity against IHNV infected in EPC cells (unknown origin) assessed as reduction in viral G protein expression at 25 uM pretreated virus with compound for 2 hrs followed by compound-treated virus infection in EPC cells measured after 72 hrs by RT-qPCR analysis relative to control", "type": "functional", "design": "scale not given: the % may be the effect or the level left"}, "[3]": {"tested_on": "Infectious hematopoietic necrosis virus", "assay": "Antiviral activity against IHNV infected in EPC cells (unknown origin) assessed as decrease in virus-induced number of individual mitochondria per cell at 25 uM incubated for 72 hrs by Mito-Tracker dye based analysis", "type": "functional, organism-based"}, "[4]": {"tested_on": "Infectious hematopoietic necrosis virus", "assay": "Antiviral activity against IHNV infected in juvenile rainbow trout assessed as decrease in erythrocytes in spleen administered intraperitoneally measured after 2 days by H and E staining based analysis", "type": "functional, organism-based", "settings": "route ip, time 2.0 day"}, "[5]": {"tested_on": "Infectious hematopoietic necrosis virus", "assay": "Antiviral activity against IHNV infected in EPC cells (unknown origin) assessed as inhibition of viral N gene expression at 25 uM measured after 72 hrs by RT-qPCR analysis relative to control", "type": "functional"}, "[6]": {"tested_on": "Infectious hematopoietic necrosis virus", "assay": "Antiviral activity against IHNV infected in juvenile rainbow trout assessed as decrease in viral G gene expression in spleen administered intraperitoneally measured after 1 to 4 days by RT-qPCR analysis", "type": "functional, organism-based", "settings": "route ip, time 1-4 day"}, "[7]": {"tested_on": "Infectious hematopoietic necrosis virus", "assay": "Antiviral activity against IHNV infected in juvenile rainbow trout assessed as increase in IFN-1 gene expression in kidney administered intraperitoneally measured after 2 days by RT-qPCR analysis", "type": "functional, organism-based", "settings": "route ip, time 2.0 day"}, "[8]": {"tested_on": "Infectious hematopoietic necrosis virus", "assay": "Antiviral activity against IHNV infected in EPC cells (unknown origin) assessed as increase in virus-reduced average number of mitochondrial networks within cells at 25 uM incubated for 72 hrs by Mito-Tracker dye based analysis", "type": "functional, organism-based"}, "[9]": {"tested_on": "Infectious hematopoietic necrosis virus", "assay": "Antiviral activity against IHNV infected in EPC cells (unknown origin) assessed as smooth outer membrane in mitochondria by TEM analysis", "type": "functional, organism-based"}, "[10]": {"tested_on": "Infectious hematopoietic necrosis virus", "assay": "Antiviral activity against IHNV infected in EPC cells (unknown origin) assessed as viral titer measured per 0.1 ml incubated for 72 hrs by Reed-Muench method (reference value: 1 10^6.74TCID50)", "type": "functional"}, "[11]": {"tested_on": "Infectious hematopoietic necrosis virus", "assay": "Antiviral activity against IHNV infected in juvenile rainbow trout assessed as increase in Mx1 gene expression in spleen administered intraperitoneally measured after 2 days by RT-qPCR analysis", "type": "functional, organism-based", "settings": "route ip, time 2.0 day"}, "[12]": {"tested_on": "Infectious hematopoietic necrosis virus", "assay": "Antiviral activity against IHNV infected in juvenile rainbow trout assessed as increase in IFN-1 gene expression in spleen administered intraperitoneally measured after 2 days by RT-qPCR analysis", "type": "functional, organism-based", "settings": "route ip, time 2.0 day"}, "[13]": {"tested_on": "Infectious hematopoietic necrosis virus", "assay": "Antiviral activity against IHNV infected in juvenile rainbow trout assessed as decrease in viral G gene expression in kidney of recipient fishes on horizontal transmission between virus-infected donor fishes and non-infected recipient fishes at 25 uM immersed together in compound for 48 hrs by qPCR analysis", "type": "functional, organism-based"}, "[14]": {"tested_on": "Infectious hematopoietic necrosis virus", "assay": "Antiviral activity against IHNV infected in EPC cells (unknown origin) assessed as inhibition of viral replication at 25 uM preincubated for 24 hrs followed by viral infection measured after 72 hrs by RT-qPCR analysis", "type": "functional, organism-based", "settings": "time 96.0 hrs"}, "[15]": {"tested_on": "Infectious hematopoietic necrosis virus", "assay": "Antiviral activity against IHNV infected in EPC cells (unknown origin) assessed as minimal number of apoptotic bodies within observed area at 25 uM measured after 72 hrs by fluorescence microscopy", "type": "functional, organism-based"}, "[16]": {"tested_on": "Infectious hematopoietic necrosis virus", "assay": "Antiviral activity against IHNV infected in EPC cells (unknown origin) assessed as reduction in virus-induced disruption of mitochondrial membrane potential at 25 uM incubated for 72 hrs by JC-1 dye based analysis", "type": "functional, organism-based"}, "[17]": {"tested_on": "Infectious hematopoietic necrosis virus", "assay": "Antiviral activity against IHNV infected in EPC cells (unknown origin) assessed as inhibition of viral M gene expression at 25 uM measured after 72 hrs by RT-qPCR analysis relative to control", "type": "functional"}, "[18]": {"tested_on": "Infectious hematopoietic necrosis virus", "assay": "Antiviral activity against IHNV infected in EPC cells (unknown origin) assessed as reduction in cytopathic effect at >4 uM measured after 72 hrs by RT-qPCR analysis", "type": "functional, organism-based"}, "[19]": {"tested_on": "Infectious hematopoietic necrosis virus", "assay": "Antiviral activity against IHNV infected in EPC cells (unknown origin) assessed as reduction in cytopathic effect at 25 uM pretreated virus with compound for 1 to 2 hrs followed by compound-treated virus infection in EPC cells measured after 72 hrs by RT-qPCR analysis", "type": "functional, organism-based", "settings": "time 1-2 hrs"}, "[20]": {"tested_on": "Infectious hematopoietic necrosis virus", "assay": "Antiviral activity against IHNV infected in juvenile rainbow trout assessed as decrease in erythrocytes in kidney administered intraperitoneally measured after 2 days by H and E staining based analysis", "type": "functional, organism-based", "settings": "route ip, time 2.0 day"}, "[21]": {"tested_on": "Infectious hematopoietic necrosis virus", "assay": "Antiviral activity against IHNV infected in EPC cells (unknown origin) assessed as inhibition of viral G gene expression measured after 72 hrs by RT-qPCR analysis", "type": "functional, organism-based", "settings": "dose 0.1-100 µM"}, "[22]": {"tested_on": "Infectious hematopoietic necrosis virus", "assay": "Antiviral activity against IHNV infected in EPC cells (unknown origin) assessed as formation of tubular structures by cristae by TEM analysis", "type": "functional, organism-based"}, "[23]": {"tested_on": "Infectious hematopoietic necrosis virus", "assay": "Antiviral activity against IHNV infected in EPC cells (unknown origin) assessed as reversal of chromatin condensation at 25 uM measured after 72 hrs by fluorescence microscopy", "type": "functional, organism-based"}, "[24]": {"tested_on": "Infectious hematopoietic necrosis virus", "assay": "Antiviral activity against IHNV infected in EPC cells (unknown origin) assessed as reduction in virus-induced mitochondrial-lysosomal contact at 25 uM incubated for 72 hrs by Mito-Tracker/Lyso-Tracker dye based analysis", "type": "functional, organism-based"}, "[25]": {"tested_on": "Infectious hematopoietic necrosis virus", "assay": "Antiviral activity against IHNV infected in EPC cells (unknown origin) assessed as dense monolayer arrangement in host cells at 25 uM pretreated virus with compound for 4 hrs followed by compound-treated virus infection in EPC cells measured after 72 hrs by microscopic analysis", "type": "functional, organism-based"}, "[26]": {"tested_on": "Infectious hematopoietic necrosis virus", "assay": "Antiviral activity against IHNV infected in EPC cells (unknown origin) assessed as inhibition of viral infection at 4 to 25 uM measured after 72 hrs by RT-qPCR analysis", "type": "functional, organism-based", "settings": "dose 4-25 µM"}, "[27]": {"tested_on": "Infectious hematopoietic necrosis virus", "assay": "Antiviral activity against IHNV infected in EPC cells (unknown origin) assessed as increase in cell proliferation at 4 uM measured after 72 hrs by CCK8 assay relative to control", "type": "functional"}, "[28]": {"tested_on": "Infectious hematopoietic necrosis virus", "assay": "Antiviral activity against IHNV infected in juvenile rainbow trout assessed as increase in IRF3 gene expression in kidney administered intraperitoneally measured after 2 days by RT-qPCR analysis", "type": "functional, organism-based", "settings": "route ip, time 2.0 day"}, "[29]": {"tested_on": "Infectious hematopoietic necrosis virus", "assay": "Antiviral activity against IHNV infected in EPC cells (unknown origin) assessed as increase in virus-reduced MAVS expression in cells by Western blot analysis", "type": "functional, organism-based"}, "[30]": {"tested_on": "Infectious hematopoietic necrosis virus", "assay": "Antiviral activity against IHNV infected in EPC cells (unknown origin) assessed as decrease in formation of new viral particles at 25 uM measured after 72 hrs by RT-qPCR analysis relative to control", "type": "functional", "design": "scale not given: the % may be the effect or the level left"}}, "note": "Activity calls are given as the source filed them. The calls are words filed in the database; no cut-off is given here.", "data": [{"smiles": "COc1ccc(C[C@H]2COC(=O)[C@@H]2Cc2ccc(OCCCCCCCCn3cncn3)c(OC)c2)cc1OC", "values": [{"measurement": "Activity", "setting": "[1]", "value": 20, "unit": "%"}, {"measurement": "Activity", "setting": "[2]", "value": 24, "unit": "%"}, {"measurement": "Activity", "setting": "[3]", "value": "Active"}, {"measurement": "Activity", "setting": "[4]", "value": "Active"}, {"measurement": "inhibition at 25 µM", "setting": "[5]", "value": "> 90", "unit": "%"}, {"measurement": "Activity", "setting": "[6]", "value": "Active"}, {"measurement": "Activity", "setting": "[7]", "value": "Active"}, {"measurement": "Activity", "setting": "[8]", "value": "Active"}, {"measurement": "Activity", "setting": "[9]", "value": "Active"}, {"measurement": "Activity", "setting": "[10]", "value": "1 10^4.73TCID50"}, {"measurement": "Activity", "setting": "[11]", "value": "Active"}, {"measurement": "Activity", "setting": "[12]", "value": "Active"}, {"measurement": "Activity", "setting": "[13]", "value": "Active"}, {"measurement": "inhibition", "setting": "[14]", "value": "Active"}, {"measurement": "Activity", "setting": "[15]", "value": "Active"}, {"measurement": "Activity", "setting": "[16]", "value": "Active"}, {"measurement": "inhibition at 25 µM", "setting": "[17]", "value": "> 90", "unit": "%"}, {"measurement": "Activity", "setting": "[18]", "value": "Active"}, {"measurement": "Activity", "setting": "[19]", "value": "Active"}, {"measurement": "Activity", "setting": "[20]", "value": "Active"}, {"measurement": "inhibition", "setting": "[21]", "value": "Dose-dependent-effect"}, {"measurement": "Activity", "setting": "[22]", "value": "Active; The Cristae Formed Tubular Structures, With The Inter-Membrane Space Forming The Mitochondrial Outer Chamber And Connecting Cristae Inner Spaces"}, {"measurement": "Activity", "setting": "[23]", "value": "Active"}, {"measurement": "Activity", "setting": "[24]", "value": "Active"}, {"measurement": "Activity", "setting": "[25]", "value": "Active"}, {"measurement": "inhibition", "setting": "[26]", "value": "Active"}, {"measurement": "Activity", "setting": "[27]", "value": ">50", "unit": "%"}, {"measurement": "Activity", "setting": "[28]", "value": "Active"}, {"measurement": "Activity", "setting": "[29]", "value": "Active"}, {"measurement": "Activity", "setting": "[30]", "value": 100, "unit": "%"}]}]}
